In patent US4174407A, “Antiviral agent” (Sumitomo Chemical Company, Limited, priority 1978, dated 1979):
Values after ≈ are worked out from the molar mass of the structure shown. Counter-ions that a name gives are not always drawn. Like-named read-outs stand apart in the source and are kept apart here.

What was measured:
[1] = system: herpes simplex type 1 (HF strain); experiment: Tube dilution method, virus-induced cytopathic effect in tissue culture (antiviral MIC); assay type: cell-based; details: for MIC: read-out: Minimum virus growth inhibition concentration (MIC)
Influenza Ao PR/8 = assay type: in vivo, ddY male mice; details: 7 days after infection, control 4.8
[2] = Cytotoxicity in KB cells by microscopic examination (MCC); details: human
[3] = Cytotoxicity in HeLa cells by microscopic examination (MCC); details: human
[4] = system: herpes simplex virus type 1 (HF strain); experiment: Effects on herpeskeratitis, eye lotion in rabbits (cure period and toxicity); assay type: in vivo; details: 0.5% eye lotion in 1.4% polyvinyl alcohol, every two hours, five times a day, 7 days; rabbit eye
Method: (§1) Therapeutic effects were determined by using two experimental infections as follows.
The corneal epithelium of each eye of rabbit was anesthetized and scratched, then each eye was infected with herpes simplex virus type 1 (HF strain). One of each infected eyes was used for treatment with the compound A and the other was used for viral control. One half % eye lotion of the compound A in 1.4% polyvinyl alcohol was applied every two hours, five times a day during 7 days 12 hr. after virus infection. Each eye was daily examined and scored the lesion on the conjunctiva, cornea and the iris for 7 days. In this score 0 means normal and 4 means maximal severity. The eyes scratched but not infected with virus were similarly treated with compound A in parallel as toxicity control.

[5] = system: herpes simplex virus type 1 HF strain; experiment: Effects on herpesencephalitis, intracerebrally infected mice; assay type: in vivo; details: for Survival ratio (no. of survivors/no. of total mice): 21st day, control 0/10
Method: as §1
Mice were anesthetized with ether and were infected intracerabrally (i.c.) with 30 LD50 of herpes simplex virus type 1 HF strain. Infected mice were treated with various therapeutic schedules. The antiviral effects of the compound A was determined by comparing the number of survivors at 3 weeks after viral infection and the mean survival days of the drug-treatedand placebo-treated animals.
(a) Dose of administration
(b) Schedule of administration of each route was as follows, i.c. (intracerebrally): single administration simultaneously with virus infection p.o (per os): twice administration per day during 8.5 days from 4 hr. after virus infection s.c. (subcutaneously): twice administration per day during 8.5 days from 4 hr. after virus infection i.v. (intravenously): single administration at 3 hr. after virus infection
(c) The animals were examined for 21 days and deaths occuring were recorded.
(d) Survivors at 21st day.

herpes virus = experiment: Antiviral activities on herpes virus (general statement)
influenza virus = experiment: Antiviral activities on influenza virus (general statement)
Newcastle disease virus = details: Aigami et al., J. Med. Chem. 19, 536, 1976; cited from earlier work
in vivo = details: mouse
DNA virus = details: general knowledge; cited from earlier work
[6] = host cells KB, 1000 TCD50, 72 hr, 37° C.

In the case of `NC12CC3CC(CC(C3)C1)C2` [Amantadine HCl, amantadine hydrochloride, reference compound], the MIC ([1]; Human alphaherpesvirus 1, 72 h) is reported as 50 µg/mL, the “Minimum virus growth inhibition concentration (MIC)” value [1, 6] is reported as 50 µg/mL and the “Lung Lesion Score” value (Influenza Ao PR/8; 10 mg/kg s.c., * P<0.05 (Student's t test)) is reported as 4.3. The “Lung Lesion Score” value (Influenza Ao PR/8; 25 mg/kg s.c., * P<0.05 (Student's t test)) was 4.1, the “Lung Lesion Score” value (Influenza Ao PR/8; 50 mg/kg s.c., * P<0.05 (Student's t test)) was 4.0 and the MCC at 72 h [2] was greater than 50 µg/mL. It also gave an MCC at 72 h [3] greater than 50 µg/mL.

In the case of `NC12CCCC3CC(CCC31)C2` (centres unmarked) [Compound A, 3-Amino-4-homoisotwistane hydrochloride], the MIC ([1]; Human alphaherpesvirus 1, host cells HeLa, 1000 TCD50, 72 hr, 37° C.) is reported as 5 µg/mL, the “Minimum virus growth inhibition concentration (MIC)” value [1, 6] is reported as 5 µg/mL and the “cure period as compared with control” value [4] is reported as “did not prolong the cure period as compared with control”. The “Survival ratio (no. of survivors/no. of total mice)” value ([5]; 5 mg/kg i.c., single, simultaneously with virus infection) was 7/10, the “Mean no. of survival days” value ([5]; 5 mg/kg i.c., single, simultaneously with virus infection, control 5.6) was 7.2 days and the “Survival ratio (no. of survivors/no. of total mice)” value ([5]; 10 mg/kg i.v., single at 3 hr. after infection) was 2/10. The “Mean no. of survival days” value ([5]; 10 mg/kg i.v., single at 3 hr. after infection, control 6.2) was 8.0 days, the “Survival ratio (no. of survivors/no. of total mice)” value ([5]; 100 mg/kg p.o., twice per day during 8.5 days from 4 hr. after infection) was 3/10 and the “Mean no. of survival days” value ([5]; 100 mg/kg p.o., twice per day during 8.5 days from 4 hr. after infection, control 5.9) was 7.8 days. The “Survival ratio (no. of survivors/no. of total mice)” value ([5]; 100 mg/kg s.c., twice per day during 8.5 days from 4 hr. after infection) was 5/10, the “Mean no. of survival days” value ([5]; 100 mg/kg s.c., twice per day during 8.5 days from 4 hr. after infection, control 5.8) was 7.6 days and the “Lung Lesion Score” value (Influenza Ao PR/8; 7.5 mg/kg s.c., no significance mark) was 4.6. The “Lung Lesion Score” value (Influenza Ao PR/8; 15 mg/kg s.c., * P<0.05 (Student's t test)) was 4.0, the “Lung Lesion Score” value (Influenza Ao PR/8; 30 mg/kg s.c., * P<0.05 (Student's t test)) was 4.2 and the “antiviral effects on herpes virus and so on, compared with tromantadine” value (herpes virus; comparison with tromantadine) was “much superior to those of tromantadine”. For the same compound, the “antiviral activities on herpes virus” value (herpes virus; general statement) was “very strong antiviral activities”, the “antiviral activities on influenza virus” value (influenza virus) was “very strong antiviral activities” and the “antiviral effects on Newcastle disease virus” value (Newcastle disease virus) was “antiviral effects on Newcastle disease virus”. The LD50 (in vivo; iv) was 32 mg/kg, the LD50 (in vivo; po) was 300 mg/kg and the MCC at 72 h [2] was 50 µg/mL. The MCC at 72 h [3] was 50 µg/mL.

For `CN(C)CCOCC(=O)NC12CC3CC(CC(C3)C1)C2` [Tromantadine, tromantadine], the MIC ([1]; Human alphaherpesvirus 1, host cells KB, 1000 TCD50, 72 hr, 37° C.) is listed as 25 µg/mL (≈ 89.2 µM), the “anti DNA viral activities” value (DNA virus) is listed as “known to show an anti DNA viral activities” and the MCC at 72 h [2] is listed as greater than 50 µg/mL.
